Laboratory results as given in patent US7371555B2, “Polypeptides having α-H-α-amino acid amide racemase activity and nucleic acids encoding the same” (DSM IP Assets B.V., priority 2002, dated 2008).

Experiments:
Type in all cases: biochemical
[1] = test system: α-H-α-amino acid amide racemase from Arthrobacter nicotianae NCIMB 41126; assay: Substrate specificity, CFE from E. coli DH10B/pAn(1)PLV36D06 (Example 9); details: relative to the activity towards D-leucine amide; 75 mM substrate, pH 8.0, 37° C.
Procedure: Preparation of the CFE of E. coli DH10B/pAn(1)PLV36D06 was performed as described in Example 7 for E. coli TOP10/pKEC_AZAR—3
Before applying the CFE from E. coli DH10B/pAn(1)PLV36D06 in the reactions with different enantiomerically pure α-H-α-amino acid amides to determine the substrate specificity of the A. nicotianae α-H-α-amino acid amide racemase, the E. coli amidases/aminopeptidases in this CFE were inhibited by a pre-treatment with an inhibitor cocktail. One tablet of Complete Mini Protease Inhibitor Cocktail (Roche Applied Science, Mannheim, Germany) was dissolved in 9 ml of the CFE followed by an incubation of 1 hour at room temperature. Next, reaction mixtures of 10 ml each (including the CFE) were prepared containing 50 mM HEPES-NaOH, pH 8.0, 20 μM pyridoxal-5-phosphate, 0.4 mg/ml BSA, 1 mM dithiothreitol and 75 mM of one of the amino acid amides tested. Reactions were started by the addition of 1 ml of the pre-treated CFE of E. coli DH10B/pAn(1)PLV36D06 or E. coli TOP10/pBAD/Myc-HisC (blank) and were incubated at 37° C. At regular time intervals samples of 1 ml were taken and transferred to vials containing 1 ml of 1M H3PO4 to stop the reaction. After sufficient dilution of the samples in 0.4 M borate buffer pH 9.4, the mixtures obtained were analyzed using HPLC to determine the exact concentrations of the two amino acid and two amino acid amide enantiomers according to the method of Example 7.

[2] = test system: disintegrated cells of Agrobacterium rhizogenes Na; assay: α-H-α-amino acid amide racemase activity test with disintegrated cells; details: incubation time 139 h; 0.79 w/w % D-leucine amide
Procedure: (§1) After growth of these three strains in Medium A containing 2 g/l of D-α-amino-ε-caprolactam, cells were harvested by centrifugation at 12,000×g. After centrifugation the supernatant was decanted and the wet weight of the pellet was measured. To the pellet, sonification buffer (NaCl, 16 g/l; KCl, 0.74 g/l; Na2HPO4, 0.27 g/l; glucose, 2 g/l; HEPES, 10 g/l, pH 7.0) was added in a 1:2 ratio (wet weight cell pellet:ml buffer). During storage between cell harvest and sonification the pellet was frozen in the sonification buffer at −86° C.
(§2) Sonification was performed with a Soniprep 150 of MSE at maximal amplitude of 20 microns in periods of 10 min. using time intervals of 10 sec. (i.e., 10 sec. sonification, 10 sec. cooling down), cooling the sample on ice/acetone. Each 10 min. the cells were viewed microscopically. The sonification procedure was stopped when >70% of the cells were broken.
(§3) 1 ml Of disintegrated cells of each of the three strains was incubated in a HEPES-NaOH buffer (20 mM) pH 7.7, to which pyridoxal-5-phosphate (0.01 mM) was added as a cofactor and D-leucine amide (60.8 mM) as a substrate in a total volume of 10 ml (0.79 w/w % D-leucine amide). After 0 and 139 hours 1 ml samples were taken (of which the exact weight was measured) and the reaction in these samples was stopped by adding 1 ml methanol (of which the exact weight was measured too; to be able to calculate dilution factors). Stopped reaction mixtures were centrifuged to remove particulates. The supernatants were frozen at −86° C. until HPLC analysis according to the method given in Example 1.

[3] = test system: disintegrated cells of Agrobacterium rhizogenes Bi; assay: as above; details: incubation time 139 h; 0.79 w/w % D-leucine amide
Procedure: as §1, §2, §3

[4] = test system: disintegrated cells of Arthrobacter nicotianae; assay: as above; details: incubation time 139 h; 0.79 w/w % D-leucine amide
Procedure: as §1, §2, §3

[5] = test system: α-H-α-amino acid amide racemase from Ochrobactrum anthropi IA; assay: Substrate specificity, CFE from E. coli TOP10/pKEC_AZAR_3 (Example 7); details: relative to the activity towards D-leucine amide; 75 mM substrate, 20 mM EDTA, pH 8.0, 37° C.
Procedure: Two pre-cultures of E. coli TOP10/pKEC_AZAR—3 (see Example 4) were prepared by inoculation of 2 erlenmeyer flasks with 100 ml of 2*TY medium (10 g/l Yeast extract, 16 g/l Tryptone, 5 g/l NaCl) containing 50 mg/l of kanamycin with 10 μl of a glycerol stock per flask. After overnight cultivation at 28° C. and 200 rpm, the pre-cultures were pooled, and subsequently used to inoculate 2 erlenmeyer flasks each containing 1 l of the same medium. Also these flasks were cultivated at 28° C. and 200 rpm for 16-18 h. Cells were harvested by centrifugation (15 min. at 6,200×g, 4° C.), washed with 20 mM HEPES-NaOH, pH 7.5, pooled, weighed, and resuspended in a solution containing 20 mM HEPES-NaOH, pH 7.5, 20 μM pyridoxal-5-phosphate, and 1.3 mM of dithiothreitol in a 1:3 ratio of wet weight cells to solution. Then, cells were disintegrated by 10 min. sonification with a Soniprep 150 of MSE operated at maximum amplitude using time intervals of 10 sec. (i.e., 10 sec. sonification, 10 sec. cooling) and cooling in ice/acetone. Particles were removed by centrifugation, after which sucrose was added to the cell free extract to a final concentration of 0.25 M. The resulting cell free extract (CFE) was stored in aliquots at −20° C. E. coli TOP10/pBAD/Myc-HisC (Invitrogen) cells were treated in exactly the same way and served as negative control.
The substrate specificity of the α-H-α-amino acid racemase from O. anthropi IA was determined by measuring the racemase activity of the above-mentioned CFE towards a number of enantiomerically pure amino acid amides. Each reaction mixture of 10 ml (including the CFE) contained 50 mM HEPES-NaOH, pH 8.0, 20 μM pyridoxal-5-phosphate, 0.4 mg/ml BSA, 1 mM dithiothreitol, 20 mM EDTA and 75 mM of one of the amino acid amides tested. Reactions were started by the addition of 1 ml of the thawed CFE of E. coli TOP10/pKEC_AZAR—3 or E. coli TOP10/pBAD/Myc-HisC (blank) and were incubated at 37° C. At regular time intervals samples of 1 ml were taken and transferred to vials containing 1 ml of 1M H3PO4 to stop the reaction. After sufficient dilution of the samples in 0.4 M borate buffer pH 9.4, the mixtures obtained were analyzed using HPLC to determine the exact concentrations of the two amino acid and two amino acid amide enantiomers according to the following method.
The initial activity for the different substrates tested was calculated from the linear parts of the progress curves, in which the conversion was plotted against the reaction time. Use of the linear part of the progress curves secured that only samples taken at time points at which the substrate concentration was still sufficiently high, were used for the calculations. The conversion was calculated by dividing the amount of amino acid and amino acid amide formed via the racemase reaction (so with the opposite stereochemistry compared to the substrate molecule) by the total amount of two amino acid enantiomers and the two amino acid amide enantiomers.

Q: For `CC(C)C[C@@H](N)C(N)=O` [D-leucine amide], which Rel. initial activity [1] is on record?
A: The Rel. initial activity was 100%.

Q: And the D-leucine [2]?
A: The D-leucine was 0.036 w/w %.

Q: And the D-leucine amide [2]?
A: The D-leucine amide was 0.51 w/w %.

Q: What about the L-leucine [2] of the same compound?
A: Its L-leucine is 0.078 w/w %.

Q: And the D-leucine [3]?
A: Its D-leucine is 0.013 w/w %.

Q: And the D-leucine amide [3]?
A: Its D-leucine amide is 0.61 w/w %.

Q: What about the L-leucine [3] of the same compound?
A: Its L-leucine is 0.025 w/w %.

Q: And the D-leucine [4]?
A: The D-leucine was 0.002 w/w %.

Q: What about the D-leucine amide [4] of the same compound?
A: The D-leucine amide was 0.56 w/w %.

Q: What about the L-leucine [4] of the same compound?
A: Its L-leucine is 0.068 w/w %.

Q: And the Rel. initial activity [5]?
A: The Rel. initial activity was 100%.
